From US11440899B2, “Pyrimidine TBK/IKKe inhibitor compounds and uses thereof” (Merck Patent GmbH, priority 2017, dated 2022)

What was measured:
[1] = molecular target: TBK1 (Homo sapiens (Human), UniProt Q9UHD2); test: TBK Biochemical Assay
Summary of the method: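 Enzyme and substrate with compound (10-point 1:4 series, top 30 uM final, 1% DMSO) incubated 90 min at 25 °C, then stopped; substrate/product separated and read by LabChip mobility-shift, staurosporine 10 uM final as full-inhibition control.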

[2] = molecular target: IKKe (Homo sapiens (Human), UniProt Q14164); test: IKKe Biochemical Assay
Summary of the method: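 Human IKKε activity was measured with compounds in a 10-point 1:4 dilution series, top concentration 30 uM final, in 1% DMSO final; 10 uM staurosporine served as the control. Enzyme and substrate were incubated 90 min at 25° C, then stopped, and substrate/product peaks were separated by microfluidic mobility-shift on a LabChip EZ Reader II.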

Chain of IKKe (Q14164 whole entry, species assumed): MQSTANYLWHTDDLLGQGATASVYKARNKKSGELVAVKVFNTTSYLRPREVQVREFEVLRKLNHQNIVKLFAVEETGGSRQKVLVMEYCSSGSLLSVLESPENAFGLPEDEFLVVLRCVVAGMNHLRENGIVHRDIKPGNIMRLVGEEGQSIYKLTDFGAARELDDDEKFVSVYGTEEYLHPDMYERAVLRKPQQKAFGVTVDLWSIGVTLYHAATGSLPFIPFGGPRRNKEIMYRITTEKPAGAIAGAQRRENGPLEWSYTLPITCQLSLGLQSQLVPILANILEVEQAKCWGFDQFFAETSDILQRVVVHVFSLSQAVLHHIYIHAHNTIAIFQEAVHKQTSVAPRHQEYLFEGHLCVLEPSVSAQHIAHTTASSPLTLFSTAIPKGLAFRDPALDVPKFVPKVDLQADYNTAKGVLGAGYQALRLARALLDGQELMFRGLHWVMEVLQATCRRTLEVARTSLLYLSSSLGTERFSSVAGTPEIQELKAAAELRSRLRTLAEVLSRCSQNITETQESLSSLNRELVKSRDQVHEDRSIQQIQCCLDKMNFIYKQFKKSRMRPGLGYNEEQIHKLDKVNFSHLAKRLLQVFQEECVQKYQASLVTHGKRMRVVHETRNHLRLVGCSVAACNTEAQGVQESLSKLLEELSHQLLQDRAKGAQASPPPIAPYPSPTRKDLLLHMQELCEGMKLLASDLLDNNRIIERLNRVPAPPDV
Chain of TBK1 (Q9UHD2 whole entry, species assumed): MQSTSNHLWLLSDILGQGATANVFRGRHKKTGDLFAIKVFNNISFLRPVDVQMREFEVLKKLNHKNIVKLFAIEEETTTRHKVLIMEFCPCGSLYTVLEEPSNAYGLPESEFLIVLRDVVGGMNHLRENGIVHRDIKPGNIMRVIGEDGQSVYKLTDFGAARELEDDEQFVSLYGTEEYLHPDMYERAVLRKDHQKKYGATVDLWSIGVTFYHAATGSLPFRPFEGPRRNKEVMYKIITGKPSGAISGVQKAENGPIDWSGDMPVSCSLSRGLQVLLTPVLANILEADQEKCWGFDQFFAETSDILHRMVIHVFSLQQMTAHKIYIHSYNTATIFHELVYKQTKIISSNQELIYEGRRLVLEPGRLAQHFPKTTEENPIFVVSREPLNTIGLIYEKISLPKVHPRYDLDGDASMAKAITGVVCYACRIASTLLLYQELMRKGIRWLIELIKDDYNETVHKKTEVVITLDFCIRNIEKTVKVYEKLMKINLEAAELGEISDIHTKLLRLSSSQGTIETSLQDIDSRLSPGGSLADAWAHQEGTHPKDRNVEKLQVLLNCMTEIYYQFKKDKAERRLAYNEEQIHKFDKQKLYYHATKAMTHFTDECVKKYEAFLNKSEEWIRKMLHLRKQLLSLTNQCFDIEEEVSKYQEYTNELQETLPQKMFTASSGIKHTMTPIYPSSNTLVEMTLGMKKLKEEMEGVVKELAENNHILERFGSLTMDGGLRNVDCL

| IC50 [1] [nM] | IC50 [2] [nM] | Compound |
| --- | --- | --- |
| < 100 | < 100 | COc1nc(Nc2cc(-c3ccc(O[C@@H]4CCN(C(=O)[C@H](C)O)CC4(F)F)c(C#N)c3)ncn2)ccc1N1CCN(C2COC2)C[C@@H]1C [Example 102, 2-[[(4R)-3,3-difluoro-1-[(2S)-2-hydroxypropanoyl]piperidin-4-yl]oxy]-5-[6-([6-methoxy-5-[(2S)-2-methyl-4-(oxetan-3-yl)piperazin-1-yl]pyridin-2-yl]amino)pyrimidin-4-yl]benzonitrile] |
| < 100 | < 100 | COc1nc(Nc2cc(-c3ccc(O[C@H]4CCN(C(=O)[C@H](C)O)CC4(F)F)c(C#N)c3)ncn2)ccc1N1CCN(C2COC2)C[C@H]1C [Example 103, 2-[[(4S)-3,3-difluoro-1-[(2S)-2-hydroxypropanoyl]piperidin-4-yl]oxy]-5-[6-([6-methoxy-5-[(2R)-2-methyl-4-(oxetan-3-yl)piperazin-1-yl]pyridin-2-yl]amino)pyrimidin-4-yl]benzonitrile] |
| < 100 | < 100 | COc1nc(Nc2cc(-c3ccc(O[C@@H]4CCN(C(=O)[C@H](C)O)CC4(F)F)c(C#N)c3)ncn2)ccc1N1CCN(C2COC2)C[C@H]1C [Example 104, 2-[[(4R)-3,3-difluoro-1-[(2S)-2-hydroxypropanoyl]piperidin-4-yl]oxy]-5-[6-([6-methoxy-5-[(2R)-2-methyl-4-(oxetan-3-yl)piperazin-1-yl]pyridin-2-yl]amino)pyrimidin-4-yl]benzonitrile] |
| < 100 | < 100 | COc1nc(Nc2cc(-c3ccc(OC4CCN(C(=O)[C@H](C)O)CC4)c(C#N)c3)ncn2)ccc1C(=O)N(C)C [Example 105, 6-([6-[3-cyano-4-([1-[(2S)-2-hydroxypropanoyl]piperidin-4-yl]oxy)phenyl]pyrimidin-4-yl]amino)-2-methoxy-N,N-dimethylpyridine-3-carboxamide] |
